Source: patent US20240156800A1, “EP300 DEGRADER AND USES THEREOF IN NEUROBLASTOMA” (DANA-FARBER CANCER INSTITUTE, INC., priority 2021, published 2024)
Entries after “also recorded” stand apart in the source; their conditions may differ.

How the values were obtained:
[1] = system: cleaved caspase-3 and cleaved PARP1; assay: Western blotting of apoptosis markers; type: cell-based, human; conditions: Kelly (1 μM) and NGP (2.5 μM) cells, 12-36 h
Description: Cells growing in culture were lysed for whole cell lysates as described in Durbin et al. Nat. Genet. 50:1240-1246 (2018) and Wang et al. Nat. Commun. 10:5622 (2019). Nuclear lysates were prepared using the NE-PER® nuclear lysate kit (Thermo Scientific™) according to the manufacturer's protocol. Chromatin lysates were prepared with the total histone extraction kit (Epigentek). Briefly, equivalent amounts of protein were resolved by western blotting using 4-12% Bis-Tris NuPAGE™ gels (Thermo-Fisher Scientific) prior to transfer, and immunoblotting using primary antibodies to: MYCN (1:1000, Cell Signaling Technology®), H3K27ac (1:1000, Abcam), total H3 (1:1000, Cell Signaling Technology®), EP300 (1:1000, Abcam), CBP (1:500, Cell Signaling Technology®), Cas9 (1:1000, Cell Signaling Technology®), cleaved-PARP1 (1:1000, Cell Signaling Technology), cleaved Caspase-3 (1:1000, Cell Signaling Technology®), β-actin (1:1000, Cell Signaling Technology®), GATA3 (1:1000, EMD Millipore™), TFAP2β (1:1000, Cell Signaling Technology®), Vinculin (1:1000, EMD Millipore™), CRBN (1:1000, Cell Signaling Technology®), HAND2 (1:1000, Santa Cruz Biotechnology). Secondary antibodies were horseradish peroxidase (HRP)-conjugated anti-rabbit or anti-mouse (1:5000, Santa Cruz Biotechnology), incubated prior to exposure to enhanced chemiluminescence reagents (GE, Amersham). For immunoprecipitation, equal amounts of protein were diluted in buffer C as described in Mansour et al. Science 346:1373-1377 (2014) and incubated with antibodies covalently conjugated to Dynabeads™ M-270 beads (Thermo-Fisher Scientific) overnight according to the manufacturer's directions. Antibodies used included: H3K27ac, EP300 (Abcam), CBP, TFAP2β (Cell Signaling Technology®), rabbit immunoglobulin G (IgG) (Santa Cruz Biotechnology®). Immunoprecipitated protein was isolated as per the manufacturer's directions and subjected to western blotting, as described above, or mass spectrometry.

[2] = Maximum tolerated dose testing, daily IP dosing in CD1 mice; type: in vivo
Description: (§1) For toxicity studies, four female CD1 mice (Charles River Laboratories) were injected intraperitoneally (IP) with single doses of 10 mg/Kg (R,S)-JQAD1 solubilized in 10% hydroxypropyl β-cyclodextrin (Sigma-Aldrich®) in sterile water. Following injection, blood concentration of (R,S)-JQAD1 was measured by serial measurements of animal serum at time points out to 24 h, by liquid chromatography with tandem mass spectrometry (LC-MS/MS) analysis. Pharmacokinetics were performed at ChemPartner in Shanghai, China, using LC-MS/MS method and pharmacokinetics parameters (Tmax, Cmax, T1/2, AUC, etc.) calculated with WinNonlin® V 6.2 statistics software (Pharsight Corporation) using a noncompartmental model. For maximally tolerated dose (MTD) testing, six female CD1 mice were treated with daily IP doses of (R,S)-JQAD1 at 10, 20, or 40 mg/kg. Animals were monitored for animal weight, grooming and behavior daily without noted effects. […] Animal weights, behavior and grooming were monitored daily, for a total of 21 days. […] Blood samples were obtained by retro-orbital puncture and blood analyzed at the Small Animal Imaging Facility at Beth Israel Deaconess Medical Center (Boston, MA), on a Hemavet® 9500FS (Drew Scientific) for blood counts, creatinine, AST, ALT, ALP, GGTP, and BUN measurements.

[3] = Toxicity study in Balb/c Crbn ILE391VAL humanized knockin mice; type: in vivo
Description: For toxicity studies, four female CD1 mice (Charles River Laboratories) were injected intraperitoneally (IP) with single doses of 10 mg/Kg (R,S)-JQAD1 solubilized in 10% hydroxypropyl β-cyclodextrin (Sigma-Aldrich®) in sterile water. Following injection, blood concentration of (R,S)-JQAD1 was measured by serial measurements of animal serum at time points out to 24 h, by liquid chromatography with tandem mass spectrometry (LC-MS/MS) analysis. Pharmacokinetics were performed at ChemPartner in Shanghai, China, using LC-MS/MS method and pharmacokinetics parameters (Tmax, Cmax, T1/2, AUC, etc.) calculated with WinNonlin® V 6.2 statistics software (Pharsight Corporation) using a noncompartmental model. For maximally tolerated dose (MTD) testing, six female CD1 mice were treated with daily IP doses of (R,S)-JQAD1 at 10, 20, or 40 mg/kg. Animals were monitored for animal weight, grooming and behavior daily without noted effects. […] Animal weights, behavior and grooming were monitored daily, for a total of 21 days. At day 14, three mice per treatment group were sacrificed and tissues fixed for immunohistochemistry. Blood samples were obtained by retro-orbital puncture and blood analyzed at the Small Animal Imaging Facility at Beth Israel Deaconess Medical Center (Boston, MA), on a Hemavet® 9500FS (Drew Scientific) for blood counts, creatinine, AST, ALT, ALP, GGTP, and BUN measurements.

EP300 = target: T1, EP300 (Mus musculus, UniProt B2RWS6); assay: Immunohistochemistry of EP300 in liver of Crbn ILE391VAL knockin mice; type: in vivo; conditions: 40 mg/Kg IP daily, 14 days
T1 construct: from tissue; host or cells: liver of Balb/c Crbn^ILE391VAL knock-in mice
Description: as §1, with “measurements. […]” for “measurements.”

CBP = target: T2, CBP (Mus musculus, UniProt P45481); assay: Immunohistochemistry of CBP in liver of Crbn ILE391VAL knockin mice; type: in vivo; conditions: 40 mg/Kg IP daily, 14 days
T2 construct: from tissue; host or cells: liver of Balb/c Crbn^ILE391VAL knock-in mice
Description: as §1, with “measurements. […]” for “measurements.”

[4] = 40 mg/Kg IP daily, after 14 days, p NS versus vehicle

T1 sequence (B2RWS6 whole entry): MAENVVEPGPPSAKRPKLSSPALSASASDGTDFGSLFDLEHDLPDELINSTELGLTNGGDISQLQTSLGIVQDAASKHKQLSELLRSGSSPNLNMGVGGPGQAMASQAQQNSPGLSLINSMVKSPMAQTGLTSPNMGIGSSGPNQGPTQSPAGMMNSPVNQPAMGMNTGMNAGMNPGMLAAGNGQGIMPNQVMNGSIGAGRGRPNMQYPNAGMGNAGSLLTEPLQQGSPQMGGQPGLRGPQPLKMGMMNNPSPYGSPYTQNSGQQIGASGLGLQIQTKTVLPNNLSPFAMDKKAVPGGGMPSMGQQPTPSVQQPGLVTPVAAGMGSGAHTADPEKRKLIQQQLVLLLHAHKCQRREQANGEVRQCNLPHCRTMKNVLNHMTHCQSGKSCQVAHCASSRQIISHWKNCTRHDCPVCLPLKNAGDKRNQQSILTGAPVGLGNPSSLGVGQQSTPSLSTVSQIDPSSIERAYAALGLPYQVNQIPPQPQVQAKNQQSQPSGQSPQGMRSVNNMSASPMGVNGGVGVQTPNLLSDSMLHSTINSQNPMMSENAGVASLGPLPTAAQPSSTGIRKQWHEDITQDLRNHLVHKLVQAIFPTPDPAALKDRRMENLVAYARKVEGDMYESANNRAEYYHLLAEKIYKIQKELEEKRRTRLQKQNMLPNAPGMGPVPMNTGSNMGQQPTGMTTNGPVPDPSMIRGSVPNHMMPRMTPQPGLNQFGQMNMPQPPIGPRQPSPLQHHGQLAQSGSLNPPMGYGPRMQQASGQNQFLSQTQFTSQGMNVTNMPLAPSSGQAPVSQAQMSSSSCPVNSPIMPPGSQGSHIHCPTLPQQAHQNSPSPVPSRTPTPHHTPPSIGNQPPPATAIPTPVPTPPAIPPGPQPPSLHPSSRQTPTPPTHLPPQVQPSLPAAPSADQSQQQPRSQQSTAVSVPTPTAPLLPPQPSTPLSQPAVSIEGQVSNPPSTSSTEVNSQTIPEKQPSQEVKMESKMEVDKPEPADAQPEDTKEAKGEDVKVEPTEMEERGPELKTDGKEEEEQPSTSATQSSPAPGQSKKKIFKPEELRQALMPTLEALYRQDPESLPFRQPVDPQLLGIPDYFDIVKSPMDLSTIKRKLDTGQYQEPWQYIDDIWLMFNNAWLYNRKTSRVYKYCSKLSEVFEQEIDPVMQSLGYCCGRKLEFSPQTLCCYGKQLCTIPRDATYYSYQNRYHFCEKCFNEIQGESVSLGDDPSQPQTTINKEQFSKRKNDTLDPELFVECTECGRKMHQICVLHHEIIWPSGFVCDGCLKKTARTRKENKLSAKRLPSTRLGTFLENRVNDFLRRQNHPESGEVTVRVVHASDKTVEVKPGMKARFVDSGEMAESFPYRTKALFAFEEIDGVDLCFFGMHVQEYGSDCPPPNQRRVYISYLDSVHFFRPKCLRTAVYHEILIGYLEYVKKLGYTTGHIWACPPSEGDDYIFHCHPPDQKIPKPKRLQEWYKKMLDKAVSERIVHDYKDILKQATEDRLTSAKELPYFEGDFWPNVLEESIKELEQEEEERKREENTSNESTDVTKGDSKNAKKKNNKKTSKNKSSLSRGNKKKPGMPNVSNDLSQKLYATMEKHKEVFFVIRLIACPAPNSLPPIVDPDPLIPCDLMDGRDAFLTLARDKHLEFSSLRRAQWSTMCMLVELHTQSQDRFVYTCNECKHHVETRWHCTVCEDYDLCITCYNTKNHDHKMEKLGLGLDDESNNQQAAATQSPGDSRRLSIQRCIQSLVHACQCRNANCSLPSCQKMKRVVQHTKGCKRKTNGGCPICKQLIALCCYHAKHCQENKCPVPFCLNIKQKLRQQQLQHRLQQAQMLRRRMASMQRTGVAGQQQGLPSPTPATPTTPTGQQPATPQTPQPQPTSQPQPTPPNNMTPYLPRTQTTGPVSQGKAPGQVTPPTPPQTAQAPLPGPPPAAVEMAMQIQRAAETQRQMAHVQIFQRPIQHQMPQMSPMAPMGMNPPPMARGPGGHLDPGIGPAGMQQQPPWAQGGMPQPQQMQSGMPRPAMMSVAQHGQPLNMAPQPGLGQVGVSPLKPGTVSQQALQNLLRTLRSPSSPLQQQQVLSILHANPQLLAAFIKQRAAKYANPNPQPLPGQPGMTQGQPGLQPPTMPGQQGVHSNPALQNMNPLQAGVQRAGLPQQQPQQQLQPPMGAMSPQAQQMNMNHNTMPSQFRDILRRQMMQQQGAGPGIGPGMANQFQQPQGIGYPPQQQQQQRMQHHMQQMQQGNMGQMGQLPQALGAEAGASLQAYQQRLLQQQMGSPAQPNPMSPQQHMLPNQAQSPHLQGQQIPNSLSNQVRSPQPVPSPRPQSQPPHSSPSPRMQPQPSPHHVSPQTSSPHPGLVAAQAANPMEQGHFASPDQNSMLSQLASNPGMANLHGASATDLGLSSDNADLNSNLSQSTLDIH
T2 sequence (P45481 whole entry): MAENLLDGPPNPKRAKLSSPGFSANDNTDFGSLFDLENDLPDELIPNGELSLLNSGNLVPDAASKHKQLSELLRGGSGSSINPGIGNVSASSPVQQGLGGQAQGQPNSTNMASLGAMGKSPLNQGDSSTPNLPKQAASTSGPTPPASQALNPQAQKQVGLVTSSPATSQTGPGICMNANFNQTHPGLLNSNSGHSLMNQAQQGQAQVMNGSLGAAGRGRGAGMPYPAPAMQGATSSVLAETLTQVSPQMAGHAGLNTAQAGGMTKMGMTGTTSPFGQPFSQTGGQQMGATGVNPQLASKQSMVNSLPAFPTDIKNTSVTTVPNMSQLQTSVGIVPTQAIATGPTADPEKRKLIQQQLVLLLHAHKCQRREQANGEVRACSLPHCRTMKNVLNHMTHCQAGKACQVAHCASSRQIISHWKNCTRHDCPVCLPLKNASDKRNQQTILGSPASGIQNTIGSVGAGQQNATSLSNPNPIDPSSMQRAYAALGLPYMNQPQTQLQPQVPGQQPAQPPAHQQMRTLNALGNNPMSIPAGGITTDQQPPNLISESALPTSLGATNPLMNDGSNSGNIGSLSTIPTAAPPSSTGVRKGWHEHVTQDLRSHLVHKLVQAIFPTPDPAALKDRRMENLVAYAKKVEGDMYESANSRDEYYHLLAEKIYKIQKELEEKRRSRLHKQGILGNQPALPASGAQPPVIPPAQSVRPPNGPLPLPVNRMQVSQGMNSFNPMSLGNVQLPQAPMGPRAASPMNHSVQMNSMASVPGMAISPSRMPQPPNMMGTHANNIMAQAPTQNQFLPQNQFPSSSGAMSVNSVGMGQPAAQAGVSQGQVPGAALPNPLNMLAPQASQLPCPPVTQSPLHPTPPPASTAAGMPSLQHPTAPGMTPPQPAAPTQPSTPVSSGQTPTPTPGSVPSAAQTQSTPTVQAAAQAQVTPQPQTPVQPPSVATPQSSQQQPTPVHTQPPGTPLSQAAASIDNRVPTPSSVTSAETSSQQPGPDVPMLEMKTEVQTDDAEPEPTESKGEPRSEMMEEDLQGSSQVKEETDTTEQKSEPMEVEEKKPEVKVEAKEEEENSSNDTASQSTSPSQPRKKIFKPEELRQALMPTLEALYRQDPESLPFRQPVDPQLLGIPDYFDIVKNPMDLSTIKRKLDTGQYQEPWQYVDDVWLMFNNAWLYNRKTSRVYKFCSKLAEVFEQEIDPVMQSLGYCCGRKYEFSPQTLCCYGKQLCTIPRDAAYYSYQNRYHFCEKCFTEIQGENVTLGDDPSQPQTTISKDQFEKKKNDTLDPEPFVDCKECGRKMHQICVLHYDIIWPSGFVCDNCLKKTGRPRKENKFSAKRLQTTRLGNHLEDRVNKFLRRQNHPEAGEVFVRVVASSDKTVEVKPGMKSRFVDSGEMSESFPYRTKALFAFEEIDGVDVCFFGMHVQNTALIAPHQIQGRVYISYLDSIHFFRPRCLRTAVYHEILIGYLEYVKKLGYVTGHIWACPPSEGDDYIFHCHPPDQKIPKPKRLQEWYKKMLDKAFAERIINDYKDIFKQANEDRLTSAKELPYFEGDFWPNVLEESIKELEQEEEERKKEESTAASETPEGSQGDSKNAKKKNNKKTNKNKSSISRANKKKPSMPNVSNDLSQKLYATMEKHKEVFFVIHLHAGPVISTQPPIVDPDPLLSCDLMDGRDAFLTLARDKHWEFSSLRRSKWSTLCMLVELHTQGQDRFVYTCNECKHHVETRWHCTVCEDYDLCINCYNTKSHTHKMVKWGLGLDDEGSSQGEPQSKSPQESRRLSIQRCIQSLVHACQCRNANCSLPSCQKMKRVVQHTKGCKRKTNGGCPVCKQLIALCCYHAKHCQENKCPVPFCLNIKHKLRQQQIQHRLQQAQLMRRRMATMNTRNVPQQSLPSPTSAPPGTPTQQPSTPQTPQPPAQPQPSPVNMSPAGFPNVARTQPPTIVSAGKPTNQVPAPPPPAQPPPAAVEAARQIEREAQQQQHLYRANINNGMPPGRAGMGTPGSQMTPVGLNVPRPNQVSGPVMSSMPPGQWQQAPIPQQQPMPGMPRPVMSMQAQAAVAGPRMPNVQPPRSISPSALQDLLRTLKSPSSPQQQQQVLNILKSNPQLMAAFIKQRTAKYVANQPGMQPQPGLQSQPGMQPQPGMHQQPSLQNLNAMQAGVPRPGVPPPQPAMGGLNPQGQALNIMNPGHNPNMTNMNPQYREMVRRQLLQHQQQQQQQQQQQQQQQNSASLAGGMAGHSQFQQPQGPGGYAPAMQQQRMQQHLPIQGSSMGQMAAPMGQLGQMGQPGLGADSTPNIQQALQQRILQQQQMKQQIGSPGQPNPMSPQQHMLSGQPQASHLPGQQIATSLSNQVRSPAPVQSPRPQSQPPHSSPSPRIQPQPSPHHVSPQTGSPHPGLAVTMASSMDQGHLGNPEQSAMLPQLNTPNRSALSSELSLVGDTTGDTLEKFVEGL

C[C@H](N(Cc1ccc(F)cc1)C(=O)CN1C(=O)O[C@@]2(CCc3cc(NC(=O)CCCCCCCCCCCNc4ccc5c(c4)C(=O)N(C4CCC(=O)NC4=O)C5=O)ccc32)C1=O)C(F)(F)F (stereo partly drawn) [JQAD1, 12-((2-(2,6-dioxopiperidin-3-yl)-1,3-dioxoisoindolin-5-yl)amino)-N-((R)-3′-(2-((4-fluorobenzyl)((S)-1,1,1-trifluoropropan-2-yl)amino)-2-oxoethyl)-2′,4′-dioxo-2,3-dihydrospiro[indene-1,5′-oxazolidin]-5-yl)dodecanamide]
apoptosis: cleavage of caspase-3 and PARP1 [1]: induction of cellular apoptosis marked by cleavage of caspase-3 and PARP1 | tolerability / animal weight ([2]; daily IP at increasing doses (10, 20, 40 mg/kg), CD1 mice): well tolerated with no signs of animal weight loss; also recorded: no effect on animal weight | maximal dosage for single-dose IP administration without evident toxicity ([2]; mouse, IP): 40 mg/kg | tolerability ([3]; 40 mg/Kg IP daily for 21 days, measurements after 14 days): well tolerated, with no effects on grooming, behavior, weight, peripheral blood counts, liver function tests or creatinine measurements | tissue pathology (hematoxylin and eosin) ([3]; 40 mg/Kg IP daily, 14 days, blinded pathologist): no gross changes in tissue architecture or immune infiltrate; also recorded: no histologic or biochemical evidence of toxicity in the liver | ALP [3, 4]: 51 | ALT [3, 4]: 54 | AST [3, 4]: 37 | Albumin [3, 4]: 3.2 | Basophils [3, 4]: 0.02 K/μL | Creatinine [3, 4]: 0.17 | Eosinophils [3, 4]: 0.10 | GGTP [3, 4]: 5 | Hematocrit [3, 4]: 41.2% | Hemoglobin [3, 4]: 13.35 | Lymphocytes [3, 4]: 1.80 | Monocytes [3, 4]: 0.35 K/μL | Neutrophils [3, 4]: 1.2 | Platelet [3, 4]: 528 K/μL | WBC [3, 4]: 3.46 K/μL | toxicity (blood counts, liver and kidney function tests, weight, grooming) ([3]; twice daily 40 mg/Kg IP for 14 days): no toxicity was observed | EP300 protein expression in liver (EP300): reduced EP300 protein expression levels in the liver cell nuclei | CBP in liver (CBP): CBP remained detectable by immunohistochemistry
